From article PMC5587909, “Inhibition of the ATP Synthase Eliminates the Intrinsic Resistance of Staphylococcus aureus towards Polymyxins” (mBio, 2017)
≈ marks a conversion by molar mass, not a printed value.

Legend:
Test in all cases: microbe, parasite or virus in culture
[1] = tested on: S. aureus JE2 vraG transposon mutant (SAUSA300_0648)
Source text: (§1) Staphylococcus aureus is intrinsically resistant to the clinically approved cationic antimicrobial peptides polymyxin B (PMB) and colistin ([1], [16]). […] The MIC for PMB was subsequently determined using Etests for the identified mutants.
(§2) The strains used in this study include S. aureus strain JE2 (plasmid-cured derivative of USA300 LAC) and all derivative strains within the Nebraska Transposon Mutant Library (NTML), consisting of 1,920 unique transposon mutants with inactivation of nonessential genes ([15]). The bursa aurealis transposon used to create the collection contains the resistance cassette ermB, which confers resistance to erythromycin ([15]). Additionally we used S. aureus SA113 and two derivatives, SA113 ΔdltA ([9]) and SA113 ΔmprF ([10]). All bacterial strains were cultured at 37°C in tryptic soy broth (TSB) or on tryptic soy agar (TSA), with antimicrobial agents added as indicated. Two methods have been employed to determine MICs to various antimicrobial agents. (i) A 2-fold broth microdilution assay in TSB (100 µl) with an initial inoculum of approximately 5 × 10^5 cells/ml was employed to determine the MICs of polymyxin B sulfate (Sigma), gallidermin (Santa Cruz Biotechnology), nisin (Sigma), bacitracin (Sigma), and LL-37 (Isca Biochemicals). […] The MIC was determined upon incubation at 37°C for 22 h. […]

[2] = tested on: S. aureus JE2 vraF transposon mutant (SAUSA300_0647)
Source text: as §1, §2

[3] = tested on: S. aureus JE2 atpA transposon mutant (SAUSA300_2060)
Source text: as §1, §2

[4] = tested on: S. aureus JE2 (wild type); conditions: 22 h; for MIC: Staphylococcus aureus, read-out: MIC, WT
Source text: as §1, §2

[5] = tested on: S. aureus JE2 graR transposon mutant (SAUSA300_0645)
Source text: as §1, §2

## CNC(C)C1CCC(N)C(OC2C(N)CC(N)C(OC3OCC(C)(O)C(NC)C3O)C2O)O1 (stereo not shown) [Gentamicin, gentamicin]
[1]; Staphylococcus aureus, 22 h, read-out: MIC, vraG
  MIC: 0.25 mg/L (≈ 0.523 µM)
[1]; {}
  fold reduction in MIC / increased sensitivity relative to WT: 3-6 fold
[2]; Staphylococcus aureus, 22 h, read-out: MIC, vraF
  MIC: 0.38 mg/L (≈ 0.796 µM)
[2]; {}
  fold reduction in MIC / increased sensitivity relative to WT: 3-6 fold
[3]; Staphylococcus aureus, 22 h, read-out: MIC, atpA
  MIC: 0.094 mg/L (≈ 0.197 µM)
[3]; {}
  fold reduction in MIC / increased sensitivity relative to WT: 16 fold
[4]
  MIC: 1.5 mg/L (≈ 3.14 µM)
[5]; Staphylococcus aureus, 22 h, read-out: MIC, graR
  MIC: 0.5 mg/L (≈ 1.05 µM)
[5]; {}
  fold reduction in MIC / increased sensitivity relative to WT: 3-6 fold

## CC(=O)NC[C@H]1CN(c2ccc(N3CCOCC3)c(F)c2)C(=O)O1 [Linezolid, linezolid]
[4]
  MIC: 2 mg/L (≈ 5.93 µM)

## Cc1onc(-c2ccccc2)c1C(=O)N[C@@H]1C(=O)N2[C@@H]1SC(C)(C)[C@@H]2C(=O)O [Oxacillin, oxacillin]
[4]
  MIC: 0.5 mg/L (≈ 1.25 µM)

## CN[C@H](CC(C)C)C(=O)N[C@H]1C(=O)N[C@@H](CC(N)=O)C(=O)N[C@H]2C(=O)N[C@H]3C(=O)N[C@H](C(=O)N[C@H](C(=O)O)c4cc(O)cc(O)c4-c4cc3ccc4O)[C@H](O)c3ccc(c(Cl)c3)Oc3cc2cc(c3O[C@@H]2O[C@H](CO)[C@@H](O)[C@H](O)[C@H]2O[C@H]2C[C@](C)(N)[C@H](O)[C@H](C)O2)Oc2ccc(cc2Cl)[C@H]1O [Vancomycin, vancomycin]
[1]; conventional antibiotics (Table 3), Etest on TSA, 37°C, 22 h, vraG mutant
  MIC, vraG: 1 mg/L (≈ 0.69 µM)
[2]; conventional antibiotics (Table 3), Etest on TSA, 37°C, 22 h, vraF mutant
  MIC, vraF: 0.75 mg/L (≈ 0.518 µM)
[3]; conventional antibiotics (Table 3), Etest on TSA, 37°C, 22 h, atpA mutant
  MIC, atpA: 1.500 mg/L (≈ 1.04 µM)
[4]; conventional antibiotics (Table 3), Etest on TSA, 37°C, WT JE2
  MIC, WT: 1.5 mg/L (≈ 1.04 µM)
[5]; conventional antibiotics (Table 3), Etest on TSA, 37°C, 22 h, graR mutant
  MIC, graR: 1 mg/L (≈ 0.69 µM)
